Source: EP3623369A1, “NOVEL MORPHOLINYL AMINE COMPOUNDS FOR THE TREATMENT OF AUTOIMMUNE DISEASE” (F. Hoffmann-La Roche AG, priority 2018, dated 2020)

Each compound was assayed against T1, human TLR8 (Homo sapiens, UniProt Q9NR97) (assay: HEK293-Blue-hTLR-8 cells assay (SEAP reporter, R848 stimulation)). Details: HEK293-Blue-hTLR8 cells, R848, 20 hrs; 0.003 is the lowest tested concentration; read-out: HEK/hTLR8 IC50.
T1 sequence (Q9NR97 27-1041): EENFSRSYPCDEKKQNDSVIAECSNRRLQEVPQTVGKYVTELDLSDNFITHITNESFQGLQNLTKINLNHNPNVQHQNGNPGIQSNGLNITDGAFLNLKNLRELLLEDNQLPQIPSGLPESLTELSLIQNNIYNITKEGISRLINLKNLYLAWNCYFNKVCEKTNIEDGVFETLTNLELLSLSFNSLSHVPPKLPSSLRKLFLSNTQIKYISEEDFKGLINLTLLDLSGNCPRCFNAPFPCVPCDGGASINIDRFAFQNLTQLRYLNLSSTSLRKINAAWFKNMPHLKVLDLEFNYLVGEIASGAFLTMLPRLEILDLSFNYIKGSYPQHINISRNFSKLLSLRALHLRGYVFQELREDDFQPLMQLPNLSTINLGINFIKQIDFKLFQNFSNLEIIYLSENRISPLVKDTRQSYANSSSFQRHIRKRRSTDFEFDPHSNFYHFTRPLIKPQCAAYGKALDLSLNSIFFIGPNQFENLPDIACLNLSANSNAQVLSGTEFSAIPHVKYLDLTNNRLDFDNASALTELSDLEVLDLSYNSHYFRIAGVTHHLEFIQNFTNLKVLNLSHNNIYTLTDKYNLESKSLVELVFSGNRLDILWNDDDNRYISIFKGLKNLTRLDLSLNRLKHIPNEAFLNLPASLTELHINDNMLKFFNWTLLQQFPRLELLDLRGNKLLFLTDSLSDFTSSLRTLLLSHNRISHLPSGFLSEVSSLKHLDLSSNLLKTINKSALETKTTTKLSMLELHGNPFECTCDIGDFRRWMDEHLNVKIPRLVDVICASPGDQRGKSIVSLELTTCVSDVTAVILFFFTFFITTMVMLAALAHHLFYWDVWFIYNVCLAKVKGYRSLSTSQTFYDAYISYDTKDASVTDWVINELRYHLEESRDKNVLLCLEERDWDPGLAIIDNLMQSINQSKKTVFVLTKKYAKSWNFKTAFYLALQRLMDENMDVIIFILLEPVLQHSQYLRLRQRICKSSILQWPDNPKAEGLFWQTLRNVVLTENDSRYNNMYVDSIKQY
Format: cell-based
Method: The following tests were carried out in order to determine the activity of the compounds of formula (I) or (Ia) in HEK293-Blue-hTLR-7/8/9 cells assay.
HEK293-Blue-hTLR-8 cells assay:
A stable HEK293-Blue-hTLR-8 cell line was purchased from InvivoGen (Cat.#: hkb-htlr8, San Diego, California, USA). These cells were originally designed for studying the stimulation of human TLR8 by monitoring the activation of NF-κB. A SEAP (secreted embryonic alkaline phosphatase) reporter gene was placed under the control of the IFN-β minimal promoter fused to five NF-κB and AP-1-binding sites. The SEAP was induced by activating NF-κB and AP-1 via stimulating HEK-Blue hTLR8 cells with TLR8 ligands. Therefore the reporter expression was declined by TLR8 antagonist under the stimulation of a ligand, such as R848, for incubation of 20 hrs. The cell culture supernatant SEAP reporter activity was determined using QUANTI-Blue™ kit (Cat.#: rep-qb1, Invivogen, San Diego, Ca, USA) at a wavelength of 640 nm, a detection medium that turns purple or blue in the presence of alkaline phosphatase.
HEK293-Blue-hTLR8 cells were incubated at a density of 250,000∼450,000 cells/mL in a volume of 170 µL in a 96-well plate in Dulbecco's Modified Eagle's medium (DMEM) containing 4.5 g/L glucose, 50 U/mL penicillin, […], […], 2 mM L-glutamine, 10% (v/v) heat-inactivated fetal bovine serum with addition of 20 µL test compound in a serial dilution in the presence of final DMSO at 1% and 10 µL of 60uM R848 in above DMEM, perform incubation under 37 °C in a CO2 incubator for 20 hrs. Then 20 µL of the supernatant from each well was incubated with 180 µL Quanti-blue substrate solution at 37°C for 2 hrs and the absorbance was read at 620∼655 nm using a spectrophotometer. The signalling pathway that TLR8 activation leads to downstream NF-κB activation has been widely accepted, and therefore similar reporter assay was modified for evaluating TLR8 antagonist.

IC50	SMILES
23 nM	C[C@@H]1CN(c2ccc(C#N)c3ncccc23)C[C@H](CN2Cc3ccc(N4CC5(CNC5)C4)cc3C2)O1 [Example 47, 5-[(2S,6R)-2-[[5-(2,6-diazaspiro[3.3]heptan-2-yl)isoindolin-2-yl]methyl]-6-methyl-morpholin-4-yl]quinoline-8-carbonitrile]
33 nM	CCOC(=O)C1CNCCN1c1ccc2c(c1)CN(C[C@H]1CN(c3ccc(C#N)c4ncccc34)C[C@@H](C)O1)C2 (stereo partly drawn) [Example 50, Ethyl 1-[2-[[(2S,6R)-4-(8-cyano-5-quinolyl)-6-methyl-morpholin-2-yl]methyl]isoindolin-5-yl] piperazine-2-carboxylate]
< 3 nM	C[C@@H]1CN(c2ccc(C#N)c3nccnc23)C[C@H](CN2Cc3cnc(N4CCNCC4)cc3C2)O1 [Example 60, 8-[(2R,6S)-2-methyl-6-[(6-piperazin-1-yl-1,3-dihydropyrrolo[3,4-c]pyridin-2-yl)methyl]morpholin-4-yl]quinoxaline-5-carbonitrile]
5 nM	C[C@@H]1CN(c2ccc3c(c2)CN(C[C@H]2CN(c4ccc(C#N)c5ncccc45)C[C@@H](C)O2)C3)CCN1 [Example 62, 5-[(2R,6S)-2-methyl-6-[[5-[(3R)-3-methylpiperazin-1-yl]isoindolin-2-yl]methyl]morpholin-4-yl] quinoline-8-carbonitrile]
< 3 nM	C[C@@H]1CN(c2ccc(C#N)c3ncccc23)C[C@H](CN2Cc3cnc(N4CCNCC4)nc3C2)O1 [Example 63, 5-[(2R,6S)-2-methyl-6-[(2-piperazin-1-yl-5,7-dihydropyrrolo[3,4-d]pyrimidin-6-yl)methyl]morpholin-4-yl]quinoline-8-carbonitrile]
6 nM	C[C@@H]1CN(c2ccc(C#N)c3ncccc23)C[C@H](CN2Cc3ccc(N4CCN[C@@H](C)C4)cc3C2)O1 [Example 64, 5-[(2R,6S)-2-methyl-6-[[5-[(3S)-3-methylpiperazin-1-yl]isoindolin-2-yl]methyl]morpholin-4-yl]quinoline-8-carbonitrile]
< 3 nM	C[C@@H]1CN(c2ccc(C#N)c3nccnc23)C[C@H](CN2Cc3ccc(N4CCN[C@@H](C)C4)cc3C2)O1 [Example 66, 8-[(2R,6S)-2-methyl-6-[[5-[(3S)-3-methylpiperazin-1-yl]isoindolin-2-yl]methyl]morpholin-4-yl]quinoxaline-5-carbonitrile]
36 nM	COC(=O)C1CN(c2ccc3c(c2)CN(C[C@H]2CN(c4ccc(C#N)c5ncccc45)C[C@@H](C)O2)C3)CCN1 (stereo partly drawn) [Example 67, Methyl 4-[2-[[(2S,6R)-4-(8-cyano-5-quinolyl)-6-methyl-morpholin-2-yl]methyl]isoindolin-5-yl] piperazine-2-carboxylate]
< 3 nM	C[C@@H]1CN(c2ccc(C#N)c3ncccc23)C[C@H](CN2CCc3cc(N4CCNCC4)ncc3C2)O1 [Example 70, 5-[(2R,6S)-2-methyl-6-[(6-piperazin-1-yl-3,4-dihydro-1H-2,7-naphthyridin-2-yl)methyl]morpholin-4-yl]quinoline-8-carbonitrile]

Second part, the compound before the results:

SMILES	IC50
C[C@@H]1CN(c2ccc(C#N)c3ncccc23)C[C@H](CN2Cc3ccc(N4CC5CCC(C4)N5)cc3C2)O1 [Example 42, 5-[(2S,6R)-2-[[5-(3,8-diazabicyclo[3.2.1]octan-3-yl)isoindolin-2-yl]methyl]-6-methyl-morpholin-4-yl]quinoline-8-carbonitrile]	13 nM
C[C@@H]1CN(c2ccc(C#N)c3ncccc23)C[C@H](CN2Cc3ccc(N4C5CCC4CNC5)cc3C2)O1 [Example 43, 5-[(2S,6R)-2-[[5-(3,8-diazabicyclo[3.2.1]octan-8-yl)isoindolin-2-yl]methyl]-6-methyl-morpholin-4-yl]quinoline-8-carbonitrile]	12 nM
C[C@@H]1CN(c2ccc(C#N)c3ncccc23)C[C@H](CN2Cc3ccc(N4C5CNCC4COC5)cc3C2)O1 [Example 46, 5-[(2R,6S)-2-methyl-6-[[5-(3-oxa-7,9-diazabicyclo[3.3.1]nonan-9-yl)isoindolin-2-yl]methyl]morpholin-4-yl]quinoline-8-carbonitrile]	19 nM
CC1c2ccc(N3CCNCC3)cc2CN1C[C@H]1CN(c2ccc(C#N)c3ncccc23)C[C@@H](C)O1 (stereo partly drawn) [Example 48, 5-[(2R,6S)-2-methyl-6-[(1-methyl-5-piperazin-1-yl-isoindolin-2-yl)methyl]morpholin-4-yl]quinoline-8-carbonitrile]	18 nM
C[C@@H]1CN(c2ccc(C#N)c3nccnc23)C[C@H](CN2Cc3ccc(N4CC5COCC(C4)N5)cc3C2)O1 [Example 49, 8-[(2R,6S)-2-methyl-6-[[5-(3-oxa-7,9-diazabicyclo[3.3.1]nonan-7-yl)isoindolin-2-yl]methyl]morpholin-4-yl]quinoxaline-5-carbonitrile]	14 nM
C[C@@H]1CN(c2ccc(C#N)c3ncccc23)C[C@H](CN2Cc3ccc(N4CC5(CCN5)C4)cc3C2)O1 [Example 55, 5-[(2S,6R)-2-[[5-(1,6-diazaspiro[3.3]heptan-6-yl)isoindolin-2-yl]methyl]-6-methyl-morpholin-4-yl]quinoline-8-carbonitrile]	7 nM
C[C@@H]1CN(c2ccc(C#N)c3ncccc23)C[C@H](CN2Cc3cc(N4CCNCC4)cc(F)c3C2)O1 [Example 59, 5-[(2S,6R)-2-[(4-fluoro-6-piperazin-1-yl-isoindolin-2-yl)methyl]-6-methyl-morpholin-4-yl]quinoline-8-carbonitrile]	< 3 nM
C[C@@H]1CN(c2ccc(C#N)c3ncccc23)C[C@H](CN2Cc3cnc(N4CCNCC4)cc3C2)O1 [Example 61, 5-[(2R,6S)-2-methyl-6-[(6-piperazin-1-yl-1,3-dihydropyrrolo[3,4-c]pyridin-2-yl)methyl]morpholin-4-yl]quinoline-8-carbonitrile]	< 3 nM
C[C@@H]1CN(c2ccc3c(c2)CN(C[C@H]2CN(c4ccc(C#N)c5nccnc45)C[C@@H](C)O2)C3)CCN1 [Example 65, 8-[(2R,6S)-2-methyl-6-[[5-[(3R)-3-methylpiperazin-1-yl]isoindolin-2-yl]methyl]morpholin-4-yl] quinoxaline-5-carbonitrile]	< 3 nM
C[C@@H]1CN(c2ccc(C#N)c3ncccc23)C[C@H](CN2Cc3cc(N4CCN(C)CC4)cc(F)c3C2)O1 [Example 69, 5-[(2S,6R)-2-[[4-fluoro-6-(4-methylpiperazin-1-yl)isoindolin-2-yl]methyl]-6-methyl-morpholin-4-yl]quinoline-8-carbonitrile]	< 3 nM
C[C@@H]1CN(c2ccc3c(c2)CN(C[C@H]2CN(c4ccc(C#N)c5ncccc45)C[C@@H](C)O2)C3)C[C@H](C)N1 [Example 71, 5-[(2R,6S)-2-methyl-6-[[5-[(3R,5S)-3,5-dimethylpiperazin-1-yl]isoindolin-2-yl]methyl]morpholin-4-yl]quinoline-8-carbonitrile]	6 nM
C[C@@H]1CN(c2ccc(C#N)c3ncccc23)C[C@H](CN2Cc3ccc(N4CC5COCC(C4)N5)cc3C2)O1 [Example 72, 5-[(2R,6S)-2-methyl-6-[[5-(3-oxa-7,9-diazabicyclo[3.3.1]nonan-7-yl)isoindolin-2-yl]methyl]morpholin-4-yl]quinoline-8-carbonitrile]	9 nM
